Source: patent publication US20090170872A1, “Compounds and Their Pharmaceutical Use” (Orchid Research Laboratories Limited, priority 2005, published 2009)

Tests used:
[1] = test system: TNF-α; test: TNF-α production in LPS-stimulated human whole blood (ELISA); format: cell-based; conditions: LPS 4 hours, read-out: % TNF-α Inhibitory Activity in (hPBMC)
Procedure: This assay determines the effect of the test compounds on the production of TNF-α in human whole blood. TNF-α assay is carried out as described by Armin Hatzelmann and Christian Schudt (J Pharm Exp Ther 297, 261, 2001). Compounds are tested for their ability to inhibit the activity of TNF-α in human whole blood. The test compounds are pre-incubated for 15 minutes at 37° C. and then stimulated with Lipopolysaccharide (Salmonella abortus equi, 1 µg/ml) for 4 hours at 37° C. in 5% CO2. The levels of TNF-α are estimated using Enzyme linked Immunosorbent assay performed in a 96 well format as per the procedure of the manufacturer (Cayman Chemical, Ann Arbor, USA).

Structure (SMILES)	melting point	inhibition at 1 µM [1]	inhibition at 10 µM [1]
Cc1nccn1CC1CCc2c(c3ccccc3n2C)C1NO (stereo not drawn) [Example 64, 4-(hydroxyamino)-9-methyl-3-[(2-methyl-1H-imidazol-1-yl)methyl]-2,3,4,9-tetrahydro-1H-carbazole]	140 to 144 °C		
Cc1nccn1CC1CCc2c(c3ccccc3n2C)/C1=N/OCc1ccncc1 (stereo not drawn) [Example 11, (4E)-9-methyl-3-[(2-methyl-1H-imidazol-1-yl)methyl]-1,2,3,9-tetrahydro-4H-carbazol-4-one O-(pyridin-4-ylmethyl)oxime]		11.7%	47.5%
Cc1nccn1CC1CCc2c(c3ccccc3n2C)/C1=N/OC(=O)c1ccc(Cl)s1 (stereo not drawn) [Example 56, (4E)-9-methyl-3-[(2-methyl-1H-imidazol-1-yl)methyl]-1,2,3,9-tetrahydro-4H-carbazol-4-one O-5-chloro-2-thiophenoyloxime]	140 to 144 °C	26.5%	54.3%
Cc1nccn1CC1CCc2c(c3ccccc3n2C)/C1=N/OCc1ccc([N+](=O)[O-])cc1 (stereo not drawn) [Example 15, (4E)-9-methyl-3-[(2-methyl-1H-imidazol-1-yl)methyl]-1,2,3,9-tetrahydro-4H-carbazol-4-one O-(4-nitrobenzyl)oxime]		48.1%	41.2%
Cc1nccn1CC1CCc2c(c3ccccc3n2C)/C1=N/OCC(F)(F)F (stereo not drawn) [Example 4, (4E)-9-methyl-3-[(2-methyl-1H-imidazol-1-yl)methyl]-1,2,3,9-tetrahydro-4H-carbazol-4-one O-2,2,2-trifluoroethyloxime]		19.8%	26.1%
Cc1nccn1CC1CCc2c(c3ccccc3n2C)/C1=N/OC(=O)c1ccccc1 (stereo not drawn) [Example 30, (4E)-9-methyl-3-[(2-methyl-1H-imidazol-1-yl)methyl]-1,2,3,9-tetrahydro-4H-carbazol-4-one O-benzoyloxime]	179 to 185 °C		
COc1ccc(C(=O)O/N=C2/c3c(n(C)c4ccccc34)CCC2Cn2ccnc2C)cc1 (stereo not drawn) [Example 35, (4E)-9-methyl-3-[(2-methyl-1H-imidazol-1-yl)methyl]-1,2,3,9-tetrahydro-4H-carbazol-4-one O-4-methoxybenzoyloxime]	200 to 203 °C		
Cc1nccn1CC1CCc2c(c3ccccc3n2C)/C1=N/OC(=O)c1ccc(Cl)cc1 (stereo not drawn) [Example 31, (4E)-9-methyl-3-[(2-methyl-1H-imidazol-1-yl)methyl]-1,2,3,9-tetrahydro-4H-carbazol-4-one O-4-chloro-benzoyloxime]	206 to 212 °C	10.8%	28.5%
Cc1nccn1CC1CCc2c(c3ccccc3n2C)/C1=N/OC(=O)c1ccsc1 (stereo not drawn) [Example 53]	171 to 175 °C		
Cc1cc(C(=O)O/N=C2/c3c(n(C)c4ccccc34)CCC2Cn2ccnc2C)no1 (stereo not drawn) [Example 50, (4E)-9-methyl-3-[(2-methyl-1H-imidazol-1-yl)methyl]-1,2,3,9-tetrahydro-4H-carbazol-4-one O-5-methyl-3-isoxazoloyloxime]	154 to 157 °C		
Cc1nccn1CC1CCc2c(c3ccccc3n2C)/C1=N/OC(=O)c1ccc(Br)o1 (stereo not drawn) [Example 45, (4E)-9-methyl-3-[(2-methyl-1H-imidazol-1-yl)methyl]-1,2,3,9-tetrahydro-4H-carbazol-4-one O-5-bromo-2-furanoyloxime]		12.3%	32.1%
Cc1ccsc1C(=O)O/N=C1/c2c(n(C)c3ccccc23)CCC1Cn1ccnc1C (stereo not drawn) [Example 49, (4E)-9-methyl-3-[(2-methyl-1H-imidazol-1-yl)methyl]-1,2,3,9-tetrahydro-4H-carbazol-4-one O-3-methyl-2-thiophenoyloxime]	177 to 180 °C		
Cc1nccn1CC1CCc2c(c3ccccc3n2C)/C1=N/Oc1ccc(C(F)(F)F)c(Cl)n1 (stereo not drawn) [Example 22, (4E)-9-methyl-3-[(2-methyl-1H-imidazol-1-yl)methyl]-1,2,3,9-tetrahydro-4H-carbazol-4-one O-(-chloro-5-trifluoromethyl-pyridin-2-yl)oxime]		53.1%	48%
Cc1ccoc1C(=O)O/N=C1/c2c(n(C)c3ccccc23)CCC1Cn1ccnc1C (stereo not drawn) [Example 48, (4E)-9-methyl-3-[(2-methyl-1H-imidazol-1-yl)methyl]-1,2,3,9-tetrahydro-4H-carbazol-4-one O-3-methyl-2-furanoyloxime]	165 to 170 °C	20.7%	22.6%
Cc1nccn1CC1CCc2c(c3ccccc3n2C)/C1=N/O (stereo not drawn) [Example 1, (4E)-9-methyl-3-[(2-methyl-1H-imidazol-1-yl)methyl]-1,2,3,9-tetrahydro-4H-carbazol-4-one oxime]	231 to 233 °C		
Cc1nccn1CC1CCc2c(c3ccccc3n2C)/C1=N/OC(=O)c1ccc(C(F)(F)F)cc1 (stereo not drawn) [Example 34]	200 to 203 °C		
Cc1nccn1CC1CCc2c(c3ccccc3n2C)/C1=N/OC(=O)C(F)(F)F (stereo not drawn) [Example 26, (4E)-9-methyl-3-[(2-methyl-1H-imidazol-1-yl)methyl]-1,2,3,9-tetrahydro-4H-carbazol-4-one O-trifluoroacetyloxime]	148 to 150 °C	20.8%	2.67%
Cc1nccn1CC1CCc2c(c3ccccc3n2C)/C1=N/OC(=O)c1ccoc1 (stereo not drawn) [Example 63, (4E)-9-methyl-3-[(2-methyl-1H-imidazol-1-yl)methyl]-1,2,3,9-tetrahydro-4H-carbazol-4-one [(furan-3-yl)carbonyl]oxime]	158 to 164 °C		
COc1ccc(CO/N=C2/c3c(n(C)c4ccccc34)CCC2Cn2ccnc2C)cc1 (stereo not drawn) [Example 5, (4E)-9-methyl-3-[(2-methyl-1H-imidazol-1-yl)methyl]-1,2,3,9-tetrahydro-4H-carbazol-4-one O-(4-methoxybenzyl)oxime]		18.4%	52.4%
Cc1ccc(C(=O)O/N=C2/c3c(n(C)c4ccccc34)CCC2Cn2ccnc2C)cc1 (stereo not drawn) [Example 36, (4E)-9-methyl-3-[(2-methyl-1H-imidazol-1-yl)methyl]-1,2,3,9-tetrahydro-4H-carbazol-4-one O-4-methylbenzoyloxime]	207 to 212 °C	8.81%	18.8%
Cc1nccn1CC1CCc2c(c3ccccc3n2C)/C1=N/OCc1cccnc1 (stereo not drawn) [Example 10, (4E)-9-methyl-3-[(2-methyl-1H-imidazol-1-yl)methyl]-1,2,3,9-tetrahydro-4H-carbazol-4-one O-(pyidin-3-ylmethyl)oxime]		19.9%	50.5%
Cc1nccn1CC1CCc2c(c3ccccc3n2C)/C1=N/OC(=O)c1ccnc(Cl)c1 (stereo not drawn) [Example 27, (4E)-9-methyl-3-[(2-methyl-1H-imidazol-1-yl)methyl]-1,2,3,9-tetrahydro-4H-carbazol-4-one O-2-chloropyridinoyloxime]	172 to 174 °C	3.51%	9.77%
Cc1nccn1CC1CCc2c(c3ccccc3n2C)/C1=N/OC(=O)c1ccccc1F (stereo not drawn) [Example 33, (4E)-9-methyl-3-[(2-methyl-1H-imidazol-1-yl)methyl]-1,2,3,9-tetrahydro-4H-carbazol-4-one O-2-fluorobenzoyloxime]	172 to 175 °C		
